Series [1] is described as follows: Stability in presence alkaline phosphatase after 60 mins by HPLC-MS analysis.
Series [2] is described as follows: Stability in presence of alkaline phosphatase. Conditions: isolated protein.
The nature of series [3]: Stability in presence alkaline phosphatase after 30 mins by HPLC-MS analysis.
Series [4] can be described thus: Stability in presence alkaline phosphatase after 20 mins by HPLC-MS analysis.
For series [5], the system named is T-cell. Nature of the series: Immunostimulatory activity in human Vgamma9/Vdelta2 T cells assessed as TNFalpha production after 12 hrs by ELISA. Format: functional, cell-based.
In series [6] the test system is T-cell. Put plainly: Immunostimulatory activity in human Vgamma9/Vdelta2 T cells assessed as expansion induces at 20 uM. It counts as functional, cell-based.

The source made the active and inactive calls. No cut-off for these calls is given here.

`C=C(C)CCSP(=O)([O-])OP(=O)([O-])[O-].[Na+].[Na+].[Na+]` came in with a share remaining at 1 h in series [1] of 27%. The Stability in series [2] worked out at 94%. The same compound yielded a share remaining at 0.5 h in series [3] of 54%. The compound also showed a fraction remaining at 20 min in series [4] of 48%. For the same compound, the EC50 with T-cell [5] was determined as 3.75 µM.

Take `C=CCCCCCSP(=O)(O)OP(=O)(O)O`: the EC50 in the series with T-cell [5] worked out at 6.3 µM. On the same count and under the same terms, as for `CC(O)CCSP(=O)(O)OP(=O)(O)O` (stereo not drawn), the figure is 75 µM; as for `O=P(O)(O)OP(=O)(O)SCCCCCl`, 100 µM; as for `N#CCCCCSP(=O)(O)OP(=O)(O)O`, 1 µM. The same measure, in the same setting: as for `O=P(O)(O)OP(=O)(O)SCCOCCCl`, the figure is 0.39 µM; as for `CC1(CCSP(=O)(O)OP(=O)(O)O)COC1`, 14 µM. `C/C(=C\CSP(=O)(O)OP(=O)(O)O)CO`: in the series with T-cell [6], the result was Active. Also, the EC50 with T-cell [5] came to 0.0048 µM. As for `O=P(O)(O)OP(=O)(O)SCCCCF`, in the series with T-cell [5], the EC50 came out at 10.8 µM. Same read-out and setting: under `O=P(O)(O)OP(=O)(O)SCCOC1CCCCO1` (stereo not drawn) stands 12 µM; under `O=P(O)(O)OP(=O)(O)SCc1ccccc1`, 55 µM. For the compound `CCSCCCSP(=O)(O)OP(=O)(O)O`, in the series with T-cell [5], the EC50 came out at 0.055 µM. Still for that read-out and setting: under `O=P(O)(O)OP(=O)(O)SCCC1OCCO1` stands 0.056 µM.

One may read the amount remaining as what is left of the initial amount, in per cent. High values mean less turnover, low ones more turnover. What is called EC50 is the concentration needed to bring the measured effect to its halfway point.
